Assay results taken from patent US5336485A, “Method for protecting animals against tacrine induced cytotoxic injury using sterol compounds” (priority 1993, dated 1994).
Where a name gives a salt, the structure may show the parent alone. Read-outs that look alike come from different tables or passages of the source.

Assays:
liver = experiment: CCl4 induced hepatotoxicity in rats (serum AST/ALT); format: in vivo, rat; details: for protection against CCl4 hepatotoxicity (in words): rats, serum enzyme levels
Method: In vivo experiments were performed to determine if alpha-TS administration protects the liver from chemical toxicity. The liver is the target organ for CCl4. CCl4 is a hepatotoxic agent that induces centrilobular liver necrosis through its metabolism to free radicals. Male Sprague-Dawley rats were given an intraperitoneal dose (100 mg/kg) of a tocopherol analog 24 hours prior to a CCl4 challenge (2.9g/kg given by oral garage). Forty eight hours after the challenge, the rats were sacrificed and the levels of aspartate aminotransferase (AST) and alanine aminotransferase (ALT) were measured.
As discussed above, SGOT levels provide a clinical assessment of hepatotoxicity (liver damage).
Succinate analogs were administered to male Sprague-Dawley rats 20 hours prior to a 1 g CCl4 /kg body weight oral challenge and the AST and ALT serum enzyme levels were measured 48 hours after the challenge.
Similar to the experiments were described above, the ionizable congeners were administered to Sprague-Dawley rats by i.p. injection of a 100 mg ionizable congener/kg body weight dose 20 hours prior to oral administration of a 1 g/kg dose of CCl4, and the AST and ALT levels were measured 48 hours after the CCl4 challenge.

male Sprague-Dawley rats = experiment: CCl4 induced lethality in rats; format: in vivo, rat; details: 1 g/kg
Method: The in vivo effect of alpha-TS was tested by administering a lethal oral dose of carbon tetrachloride (CC14) to male Sprague-Dawley rats.
In the experiment described in Table 3, a single dose of alpha-TS dissolved in peanut oil:ethanol (3:2) was given to male Sprague-Dawley rats. The dose was given 24 hours prior to an orally administered CCl4 challenge dissolved in peanut oil. Two to nine animals were tested per treatment. The control group comprised rats pretreated with the vehicle only. Survival was monitored for at least 7 days after the toxic insult.
In vivo experiments were performed to determine if the time the ionizable tocopherol analog (alpha-TS) is administered affects the cytoprotective functions. Male Sprague-Dawley rats were given a 100 mg/kg intraperitoneal dose of a tocopherol or succinate analog and were given a lethal dose of CCl4 (2.9g/kg by oral gavage). Table 7 contrasts the times of administration of the tocopherol or succinate analog and the times of administration of the lethal dose of CCl4 with the survival of the rats in the study (3to 6 rats per protective treatment).
Several tocopherol and succinate analogs were tested for CCl4 induced lethality. A single dose of the tocopherol or succinate analog was administered twenty four hours prior to orally administering 2.9 g CCl4 /kg body weight. Three to six animals were analyzed per treatment. The rats were monitored for seven days. […]

[1] = 100 mg/kg ip, 48 h after 1 g/kg CCl4 (Table 42)
[2] = 100 mg/kg ip, 48 h after 1 g/kg CCl4 (Table 33)
[3] = Rattus norvegicus, 100 mg/kg ip 20 h prior, 48 h after 1 g/kg CCl4, read-out: % Hepatoprotection
[4] = 100 mg/kg ip, 48 h after 1 g/kg CCl4 (Table 40)
[5] = 100 mg/kg ip (dihydrocholesterol 80 + sodium sulfate 30 mg/kg), 48 h after 1 g/kg CCl4 (Table 35)
[6] = 100 mg/kg ip, peanut oil vehicle, 48 h after 1 g/kg CCl4 (Table 39)
[7] = 100 mg/kg ip, 48 h after 1 g/kg CCl4 (Table 37)
[8] = 50 mg/kg ip, 48 h after 1 g/kg CCl4 (Table 41)

For C[C@]12CC[C@@H]3c4ccc(OS(=O)(=O)O)cc4CC[C@H]3[C@@H]1CCC2=O [Estrone sulfate, potassium salt], the ALT (liver; ip, 100 mg/kg, 48 h) was 0.87 ± 0.59 10^3 units/L, the AST (liver; ip, 100 mg/kg, 48 h) was 4.19 ± 2.75 10^3 units/L and the “protection against CCl4 hepatotoxicity (in words)” value (shortened to “protection”) (liver) was “slight cytoprotection”.

C[C@]12CC[C@@H]3c4ccc(O)cc4CC[C@H]3[C@@H]1CCC2=O [Estrone, reference compound] was tested, and the ALT (liver; [1]) was 0.33 ± 0.30 10^3 units/L and the AST (liver; [1]) was 0.56 ± 0.45 10^3 units/L.

C[C@]12CCC(=O)C=C1CC[C@@H]1[C@@H]2[C@@H](O)C[C@@]2(C)[C@H]1CC[C@]2(O)C(=O)COC(=O)CCC(=O)O [Hydrocortisone 21-succinate, reference compound] was tested, and the ALT (liver; [2]) was 1.596 ± 0.887 10^3 units/L, the AST (liver; [2]) was 6.18 ± 3.15 10^3 units/L and the inhibition in vivo at 100 mg/kg (liver; [3]) was 25%. For the same molecule, the “protection” value (liver) was “no cytoprotection was observed”.

With CCCCCCCCCCCCOS(=O)(=O)[O-].[Na+] [Lauryl sulfate, sodium salt] the ALT (liver; [4]) was 1.40 ± 0.59 10^3 units/L, the AST (liver; [4]) was 5.00 ± 1.54 10^3 units/L and the inhibition in vivo at 100 mg/kg (liver; Rattus norvegicus, ip, 48 h, read-out: % Hepatoprotection) was 26%. For the same molecule, the “protection” value (liver) was “generally not protective”.

For CCCCC/C=C\C/C=C\CCCCCCCCO [Linoleyl alcohol, reference compound], the ALT (liver; [5]) was 5.45 ± 1.10 10^3 units/L, the AST (liver; [5]) was 15.60 ± 2.98 10^3 units/L and the “protection” value (liver) was “potentiates CCl4 toxicity”.

With CCCCC/C=C\C/C=C\CCCCCCCCOC(=O)CCC(=O)O [Linoleyl succinate] the ALT (liver; [5]) was 1.44 ± 0.59 10^3 units/L, the AST (liver; [5]) was 4.47 ± 2.21 10^3 units/L and the ALT (liver; [6]) was 1.95 ± 0.84 10^3 units/L. For the same molecule, the AST (liver; [6]) was 5.60 ± 1.30 10^3 units/L and the inhibition in vivo at 100 mg/kg (liver; [3]) was 46%.

For CCCCCCCCCCCCCCCCO [Palmityl Alcohol, reference compound], the ALT (liver; [2]) was 1.840 ± 1.106 10^3 units/L, the AST (liver; [2]) was 8.70 ± 3.00 10^3 units/L and the “protection” value (liver) was “generally not protective”.

CCCCCCCCCCCCCCCCOC(=O)CCC(=O)O [Palmityl succinate] was tested, and the ALT (liver; [2]) was 1.679 ± 0.881 10^3 units/L, the AST (liver; [2]) was 6.54 ± 3.61 10^3 units/L and the inhibition in vivo at 100 mg/kg (liver; [3]) was 22%.

In the case of C/C(=C\COC(=O)CCC(=O)O)CCCC(C)CCCC(C)CCCC(C)C (stereo not shown) [Phytol succinate], the ALT (liver; [7]) is reported as 1.70 ± 0.18 10^3 units/L, the AST (liver; [7]) is reported as 3.29 ± 0.51 10^3 units/L and the inhibition in vivo at 100 mg/kg (liver; [3]) is reported as 27%. For the same molecule, the “protection” value (liver) was “generally not protective”.

With C/C(=C\CO)CCC[C@H](C)CCC[C@H](C)CCCC(C)C [Phytol, reference compound] the ALT (liver; [7]) was 2.82 ± 0.54 10^3 units/L, the AST (liver; [7]) was 4.71 ± 1.00 10^3 units/L and the “protection” value (liver) was “generally not protective”.

With CC1=C(/C=C/C(C)=C/C=C/C(C)=C/C(=O)O)C(C)(C)CCC1 [Retinoic acid, reference compound] the ALT (liver; [8]) was 6.14 ± 0.74 10^3 units/L, the AST (liver; [8]) was 17.94 ± 0.71 10^3 units/L and the inhibition in vivo at 50 mg/kg (liver; Rattus norvegicus, 50 mg/kg ip 20 h prior, 48 h after 1 g/kg CCl4, read-out: % Hepatoprotection) was -83%. For the same molecule, the “protection” value (liver) was “potentiated CCl4 toxicity”.

For O=C(O)CCC(=O)O [Succinic Acid, Na Salt, reference compound], the “Days Survived after CCl4” value (male Sprague-Dawley rats; 24 hours or 1 hour prior and daily thereafter) was 2 days and the “Days Survived After CCl4 Treatment” value (male Sprague-Dawley rats; single dose 24 h prior, CCl4 […]) was 2 days.
